# “Also recorded” adds a separate entry of the source.
# How the values were obtained:
# Format in all cases: cell-based
# [1] = test system: Candida albicans NCIM 3471 (yeast); experiment: Activity against Candida species: colony counts over 28 days
# Microsporum gypseum = experiment: Anti-dermatophytic activity, agar dilution method (Sabouraud's dextrose agar); details: for Growth of test organism (Negative/Growth): DMSO solvent, SDA, trials MG1-MG3; for Inhibition of growth at all tested concentrations: concentrations 0.15%, 0.31%, 0.625%, 1.25%, 2.50% and 5.0%
# Procedure: (§1) The anti-dermatophyte efficacy testing for greater than 99% pure form of 1,7-Bis(4-hydroxy-3-methoxyphenyl)-3,5-heptanedione (coded TP) in comparison to the corresponding 95% pure form (coded SW) was done by the agar dilution method. The medium used was Sabouraud's dextrose agar (SDA). Doubling concentration ranges from about 0.15% to about 5% of TP and […] was prepared in 5 ml Dimethylsulfoxide and added to 95 ml of SDA to form a total volume of 100 ml of the medium. The test organisms Trichophyton rubrum, Microsporum gypseum and Epidermophyton floccosum encoded as TR, MG and EF were inoculated in biosafety level 2 standards into the media comprising test compounds in the specified concentration ranges. Triplicate experiments were set up for each of the three fungi for each concentration of the test compounds to ensure reproducibility of results. DMSO and SDA controls were also included in triplicates for the test.
# (§2) The test results are represented as Table I (FIG. 1, FIG. 2 and FIG. 3). The table may be read as follows. For example, TPTR1 represents growth of Trichophyton rubrum in greater than 99% pure form of 1,7-Bis (4-hydroxy-3-methoxyphenyl)-3,5-heptanedione in the first test. Similarly duplicate and triplicate testing are represented as TPTR2 and TPTR3.
# Trichophyton rubrum = experiment: as above; details: for Growth of test organism (Negative/Growth): DMSO solvent, SDA, trials TR1-TR3; for Inhibition of growth at all tested concentrations: concentrations 0.15%, 0.31%, 0.625%, 1.25%, 2.50% and 5.0%
# Procedure: as §1, §2
# Epidermophyton floccosum = experiment: as above; details: for Growth of test organism (Negative/Growth): DMSO solvent, SDA, trials EF1-EF3; for Inhibition of growth at all tested concentrations: concentrations 0.15%, 0.31%, 0.625%, 1.25%, 2.50% and 5.0%
# Procedure: as §1, §2
# Malassezia furfur = experiment: Antifungal efficacy, agar dilution method (Sabourauds Dextrose Agar with an overlay of coconut oil); details: for Growth of test organism (Negative/Growth): DMSO solvent, trials MF1-MF3
# [2] = test system: Fusarium oxysporum (mycotoxin producing fungus); experiment: Activity against Fusarium oxysporum: counts over 28 days; details: inoculation level 1 × 10^7 CFU/g
# [3] = test interval 7 days, listed as 1,7-bis(4-hydroxy-3-methoxyphenyl)-3,5-heptanedione (about 95% purity)
# [4] = test interval 14 days, listed as 1,7-bis(4-hydroxy-3-methoxyphenyl)-3,5-heptanedione (about 95% purity)
# [5] = test interval 21 days, listed as 1,7-bis(4-hydroxy-3-methoxyphenyl)-3,5-heptanedione (about 95% purity)
# [6] = test interval 28 days, listed as 1,7-bis(4-hydroxy-3-methoxyphenyl)-3,5-heptanedione (about 95% purity)
# [7] = final concentration 0.15%, listed as 95% pure form of 1,7-Bis(4-hydroxy-3-methoxyphenyl)-3,5-heptanedione
# [8] = test interval 7 days, listed as 1,7-bis(4-hydroxy-3-methoxyphenyl)-3,5-heptanedione (>99% purity)
# [9] = test interval 14 days, listed as 1,7-bis(4-hydroxy-3-methoxyphenyl)-3,5-heptanedione (>99% purity)
# [10] = test interval 21 days, listed as 1,7-bis(4-hydroxy-3-methoxyphenyl)-3,5-heptanedione (>99% purity)
# [11] = test interval 28 days, listed as 1,7-bis(4-hydroxy-3-methoxyphenyl)-3,5-heptanedione (>99% purity)
# [12] = test interval 28 days, listed as greater than 99% pure form of 1,7-bis(4-hydroxy-3-methoxyphenyl)-3,5-heptanedion
# [13] = listed as greater than 99% pure form of 1,7-Bis(4-hydroxy-3-methoxyphenyl)-3,5-heptanedion
structure (smiles),measurement,setting,value
"COc1cc(CCC(=O)CC(=O)CCc2ccc(O)c(OC)c2)ccc1O [SW, 1,7-Bis(4-hydroxy-3-methoxyphenyl)-3,5-heptanedione]",Concentration of organism,"[1]; test interval 0 days, listed as 1,7-bis(4-hydroxy-3-methoxyphenyl)-3,5-heptanedione (about 95% purity)",25 × 10^5 cfu/ml
same,Concentration of organism,[1]; [3],19.7 × 10^5 cfu/ml
same,Log Reduction,[1]; [3],0.2
same,Percent Reduction,[1]; [3],21.2%
same,Concentration of organism,[1]; [4],16 × 10^4 cfu/ml
same,Log Reduction,[1]; [4],2.3
same,Percent Reduction,[1]; [4],99.3%
same,Concentration of organism,[1]; [5],53 × 10^5 cfu/ml
same,Log Reduction,[1]; [5],0.7
same,Percent Reduction,[1]; [5],78.6%
same,Concentration of organism,[1]; [6],31.5 × 10^5 cfu/ml
same,Log Reduction,[1]; [6],0.8
same,Percent Reduction,[1]; [6],87.4%
same,Growth of test organism (Negative/Growth),Microsporum gypseum; final concentration 0.15%,tolerated by the fungi; also recorded: Growth
same,Growth of test organism (Negative/Growth),Microsporum gypseum; [7],grow
same,Growth of test organism (Negative/Growth),Microsporum gypseum; final concentration 0.31%,Negative
same,Growth of test organism (Negative/Growth),Microsporum gypseum; final concentration 0.625%,Negative
same,Growth of test organism (Negative/Growth),Microsporum gypseum; final concentration 1.25%,Negative
same,Growth of test organism (Negative/Growth),Microsporum gypseum; final concentration 2.5%,Negative
same,Growth of test organism (Negative/Growth),Microsporum gypseum; final concentration 5%,Negative
same,Growth of test organism (Negative/Growth),Trichophyton rubrum; final concentration 0.15%,tolerated by the fungi; also recorded: Growth
same,Growth of test organism (Negative/Growth),Trichophyton rubrum; [7],grow
same,Growth of test organism (Negative/Growth),Trichophyton rubrum; final concentration 0.31%,Negative
same,Growth of test organism (Negative/Growth),Trichophyton rubrum; final concentration 0.625%,Negative
same,Growth of test organism (Negative/Growth),Trichophyton rubrum; final concentration 1.25%,Negative
same,Growth of test organism (Negative/Growth),Trichophyton rubrum; final concentration 2.5%,Negative
same,Growth of test organism (Negative/Growth),Trichophyton rubrum; final concentration 5%,Negative
same,Growth of test organism (Negative/Growth),Epidermophyton floccosum; final concentration 0.15%,able to grow; also recorded: Growth
same,Growth of test organism (Negative/Growth),Epidermophyton floccosum; [7],grow
same,Growth of test organism (Negative/Growth),Epidermophyton floccosum; final concentration 0.31%,able to grow; also recorded: Growth
same,Growth of test organism (Negative/Growth),"Epidermophyton floccosum; final concentration 0.31%, listed as 95% pure form of 1,7-Bis(4-hydroxy-3-methoxyphenyl)-3,5-heptanedione",tolerant
same,Growth of test organism (Negative/Growth),Epidermophyton floccosum; final concentration 0.625%,Negative
same,Growth of test organism (Negative/Growth),Epidermophyton floccosum; final concentration 1.25%,Negative
same,Growth of test organism (Negative/Growth),Epidermophyton floccosum; final concentration 2.5%,Negative
same,Growth of test organism (Negative/Growth),Epidermophyton floccosum; final concentration 5%,Negative
same,Concentration that inhibits the growth of the fungus,Malassezia furfur; agar dilution,≥ 1.25%
same,Growth of test organism (Negative/Growth),Malassezia furfur; final concentration 0.15%,Growth
same,Growth of test organism (Negative/Growth),Malassezia furfur; final concentration 0.31%,Growth
same,Growth of test organism (Negative/Growth),Malassezia furfur; final concentration 0.625%,Growth
same,Growth of test organism (Negative/Growth),Malassezia furfur; final concentration 1.25%,Negative; also recorded: Growth
same,Growth of test organism (Negative/Growth),Malassezia furfur; final concentration 2.5%,Negative
same,Growth of test organism (Negative/Growth),Malassezia furfur; final concentration 5%,Negative
"COc1cc(CCC(=O)CC(=O)CCc2ccc(O)c(OC)c2)ccc1O [TP, 1,7-Bis(4-hydroxy-3-methoxyphenyl)-3,5-heptanedione]",Concentration of organism,"[1]; test interval 0 days, listed as 1,7-bis(4-hydroxy-3-methoxyphenyl)-3,5-heptanedione (>99% purity)",14.6 × 10^5 cfu/ml
same,Concentration of organism,[1]; [8],72 × 10^5 cfu/ml
same,Log Reduction,[1]; [8],0.5
same,Percent Reduction,[1]; [8],50.6%
same,Concentration of organism,[1]; [9],20 × 10^8 cfu/ml
same,Log Reduction,[1]; [9],2.8
same,Percent Reduction,[1]; [9],99.8%
same,Concentration of organism,[1]; [10],75 × 10^2 cfu/ml
same,Log Reduction,[1]; [10],3.4
same,Percent Reduction,[1]; [10],99.94%
same,Concentration of organism,[1]; [11],<130 cfu/ml
same,Log Reduction,[1]; [11],5.3
same,Percent Reduction,[1]; [11],99.99%
same,Concentration of organism,[1]; [12],less than 100 cfu/ml
same,Percent Reduction,[1]; [12],99.99%
same,Day 0 count,[2],1 × 10^7 CFU/g
same,Day 7 count,[2],<10 CFU/g
same,Day 14 count,[2],<10 CFU/g
same,Day 28 Count,[2],<10 CFU/g
same,Inhibition of growth at all tested concentrations,Microsporum gypseum,inhibits the growth
same,Inhibition of growth at all tested concentrations,Microsporum gypseum; [13],completely inhibiting the growth
same,Growth of test organism (Negative/Growth),Microsporum gypseum; final concentration 0.15%,Negative
same,Growth of test organism (Negative/Growth),Microsporum gypseum; final concentration 0.31%,Negative
same,Growth of test organism (Negative/Growth),Microsporum gypseum; final concentration 0.625%,Negative
same,Growth of test organism (Negative/Growth),Microsporum gypseum; final concentration 1.25%,Negative
same,Growth of test organism (Negative/Growth),Microsporum gypseum; final concentration 2.5%,Negative
same,Growth of test organism (Negative/Growth),Microsporum gypseum; final concentration 5%,Negative
same,Inhibition of growth at all tested concentrations,Trichophyton rubrum,inhibits the growth
same,Inhibition of growth at all tested concentrations,Trichophyton rubrum; [13],completely inhibiting the growth
same,Growth of test organism (Negative/Growth),Trichophyton rubrum; final concentration 0.15%,Negative
same,Growth of test organism (Negative/Growth),Trichophyton rubrum; final concentration 0.31%,Negative
same,Growth of test organism (Negative/Growth),Trichophyton rubrum; final concentration 0.625%,Negative
same,Growth of test organism (Negative/Growth),Trichophyton rubrum; final concentration 1.25%,Negative
same,Growth of test organism (Negative/Growth),Trichophyton rubrum; final concentration 2.5%,Negative
same,Growth of test organism (Negative/Growth),Trichophyton rubrum; final concentration 5%,Negative
same,Inhibition of growth at all tested concentrations,Epidermophyton floccosum,inhibits the growth
same,Inhibition of growth at all tested concentrations,Epidermophyton floccosum; [13],completely inhibiting the growth
same,Growth of test organism (Negative/Growth),Epidermophyton floccosum; final concentration 0.15%,Negative
same,Growth of test organism (Negative/Growth),Epidermophyton floccosum; final concentration 0.31%,Negative
same,Growth of test organism (Negative/Growth),Epidermophyton floccosum; final concentration 0.625%,Negative
same,Growth of test organism (Negative/Growth),Epidermophyton floccosum; final concentration 1.25%,Negative
same,Growth of test organism (Negative/Growth),Epidermophyton floccosum; final concentration 2.5%,Negative
same,Growth of test organism (Negative/Growth),Epidermophyton floccosum; final concentration 5%,Negative
same,"Activity against Malassezia furfur at all tested concentration, in contrast to the 95% pure form",Malassezia furfur; 0.15% to 5%,enhanced activity
same,Growth of test organism (Negative/Growth),Malassezia furfur; final concentration 0.15%,Negative
same,Growth of test organism (Negative/Growth),Malassezia furfur; final concentration 0.31%,Negative
same,Growth of test organism (Negative/Growth),Malassezia furfur; final concentration 0.625%,Negative
same,Growth of test organism (Negative/Growth),Malassezia furfur; final concentration 1.25%,Negative
same,Growth of test organism (Negative/Growth),Malassezia furfur; final concentration 2.5%,Negative
same,Growth of test organism (Negative/Growth),Malassezia furfur; final concentration 5%,Negative

# Reference: patent US8119696B2, “Treatment of superficial and cutaneous mycoses with a pure form of 1,7-bis(4-hydroxy-3-methoxyphenyl)-3,5-heptanedione” (priority 2007, dated 2012)
